{"source": "patent US9068017B2", "about": "“Compositions and methods for inhibiting terminal transferase activity” (IBIS BIOSCIENCES, INC., priority 2010, dated 2015)", "system": "polymerase having terminal transferase activity", "procedure": "PCR products with and without boric acid added to PCR components and reagents prior to thermal cycling steps were compared. Stock boric acid was dissolved in 50% primer dilution buffer and added to PCR reactions for a final concentration of 100 mM boric acid and 200 mM boric acid."}
{"smiles": "OB(O)O", "note": "[boric acid]", "values": [{"measurement": "3′ non-template addition of amplicons resulting from polymerase dependent terminal transferase activity", "setting": "addition of boric acid to amplification reactions, summary statement, no concentration given", "value": "reduced 3′ non-template addition"}, {"measurement": "non-template addition on forward and reverse strands of PCR products", "setting": "boric acid added before thermal cycling, final concentration 100 mM and 200 mM, mass spectrometry (FIG. 1), non-template addition identified in absence of boric acid", "value": "undetectable non-template addition on both the forward and reverse strands"}]}
